This note sets out measurements from article PMC9656702, “Unveiling a New Selenocyanate as a Multitarget Candidate with Anticancer, Antileishmanial and Antibacterial Potential” (Molecules, 2022).

For one data set, the system named is K. pneumoniae. Nature of the data set: Growth curve study, K. pneumoniae. Type of data set: cell-based, Klebsiella pneumoniae. To be noted: for Bacterial growth of K. pneumoniae at 2MIC: highest concentration tested (2MIC), up to 48 h. As for the experimental part: (§1) To further examine the inhibitory effect of the moderately active compounds 1a and 2a on the growth of the six bacterial strains tested, growth kinetic studies were performed. Thus, the six bacterial strains were exposed to three different concentrations of the test compounds using the MIC values (Table 4) as reference (2MIC, MIC, and MIC/2), while untreated cells were used as negative control. The bacterial growth was recorded by measuring the absorbance at several time points.
(§2) A stock solution of selected compounds 1a and 2a was prepared in DMSO, and different concentrations equivalent to 2MIC, MIC, and MIC/2 in TSB of each compound were dispensed into a 96-well plate with a final volume of 100 µL, while only TSB was added for the control wells. Then, 100 µL of a diluted suspension of bacterial cells in TSB with an optical density of 0.125 measured at 600 nm (inoculum of approximately 10^5 CFU/mL) was added to each well, and the incubation was monitored by spectrophotometric measurements. The absorbance was recorded at 600 nm against time (h) at predetermined periods on a microplate reader. The experiments were performed in triplicate.

Another data set deals with S. faecalis. Nature of the data set: Growth curve study, S. faecalis. The format is cell-based, Streptococcus faecalis. To be noted: for Bacterial growth of S. faecalis at 2MIC: highest concentration tested (2MIC), up to 48 h. As for the experimental part: as §1, §2
The subject of a further data set is E. coli. Nature of the data set: Growth curve study, E. coli. Type of data set: cell-based, Escherichia coli. To be noted: for Bacterial growth of E. coli at 2MIC: highest concentration tested (2MIC), up to 48 h; for Lag phase (delay in bacterial growth), E. coli: lowest concentration evaluated (MIC/2). As to the method: as §1, §2
Another data set concerns S. epidermidis. Put plainly: Growth curve study, S. epidermidis. Type of data set: cell-based, Staphylococcus epidermidis. To be noted: for Bacterial growth of S. epidermidis at sub-MIC concentration: 6.25 µg/mL; for Bacterial growth of S. epidermidis at 2MIC: highest concentration tested (2MIC), up to 48 h. As to the method: as §1, §2
A further data set has as its system C. freundii. Nature of the data set: Growth curve study, C. freundii. Type of data set: cell-based, Citrobacter freundii. To be noted: for Bacterial growth of C. freundii at 2MIC: highest concentration tested (2MIC), up to 48 h. As to the method: as §1, §2
For a further data set, the system named is S. aureus. Nature of the data set: Growth curve study, S. aureus. Type of data set: cell-based, Staphylococcus aureus. To be noted: for Bacterial growth of S. aureus at 2MIC: highest concentration tested (2MIC), up to 48 h. As for the experimental part: as §1, §2
Data set [1] can be described thus: DPPH radical scavenging assay. To be noted: 0.06 mg/mL, after two hours. As for the experimental part: Oxidative stress has been associated with a wide range of pathologies. […] Measurements were performed at 2 concentrations and recorded at eight different time points. Ascorbic acid (Asc) and Trolox were used as positive controls. The results are presented as the percentage of DPPH radical scavenging activity and are outlined in Figure 2.
The antioxidant activity of the selenocompounds was determined by the DPPH assay following a procedure previously published by our group. Briefly, the compounds were dissolved in absolute methanol at a concentration of 1 mg/mL, and a dilution was prepared. Asc and Trolox were used as positive controls. A methanolic solution (100 µM) of DPPH˙ was made daily and […]. The stability of the radical through the time of analysis was checked by absorbance measurements of this solution. A volume of 100 µL of DPPH in methanol was added to 100 µL of the compounds’ solutions to a final concentration of 0.03 or 0.06 mg/mL, and the decolorization of the purple radical to the yellowish reduced form was followed by recording the absorbance at 517 nm. Determinations were recorded at eight different time intervals from 0 to 120 min on a BioTeck PowerWave XS spectrophotometer and the data were collected using KCJunior software. All the measurements were carried out in triplicate. […]

[2] abbreviates: lowest concentration tested, 12.5 µg/mL.

As usually defined, the melting point is the temperature of the solid-liquid transition.

SMILES strings stand for the structures.

Take `N#C[Se]C/C=C/c1ccccc1` [Compound 1a, (E)-(3-selenocyanatoprop-1-en-1-yl)benzene]: the melting point was 87 to 89 °C. Further, the “Bacterial growth of K. pneumoniae at the concentrations tested” value with K. pneumoniae (2MIC, MIC and MIC/2) is “no growth was detected”. In addition, the “Bacterial growth of K. pneumoniae at 2MIC” value in the data set on K. pneumoniae is on record as “no bacterial growth was detected”. The “Bacterial growth of S. faecalis at 2MIC” value in the data set with S. faecalis is given as “no bacterial growth was detected”. In addition, in the data set on E. coli, the “Bacterial growth of E. coli at 2MIC” value was “no bacterial growth was detected” and the “Lag phase (delay in bacterial growth), E. coli” value worked out at 41 h. Besides, in the data set on S. epidermidis, the “Bacterial growth of S. epidermidis at sub-MIC concentration” value is reported as “a delay could be observed” and the “Bacterial growth of S. epidermidis at 2MIC” value is reported as “no bacterial growth was detected”. In addition, the “Bacterial growth of C. freundii at 2MIC” value in the data set on C. freundii is reported as “no bacterial growth was detected”. In addition, in the data set with S. aureus, the “Bacterial growth of S. aureus at 2MIC” value is on record as “no bacterial growth was detected”.

The compound `N#C[Se]Cc1ccc2c(c1)OCO2` [Compound 2a, 5-(Selenocyanatomethyl)benzo[d][1,3]dioxole] displayed a melting point of 71 to 73 °C. In the data set with K. pneumoniae (25 µg/mL), the “Log phase before bacterial growth, K. pneumoniae” value came out at 28 h. Further, in the data set on K. pneumoniae (50 µg/mL), the “Log phase before bacterial growth, K. pneumoniae” value was 42 h. Further, the “Bacterial growth of K. pneumoniae at 2MIC” value with K. pneumoniae is “no bacterial growth was detected”. In addition, the “Bacterial growth of S. faecalis at 2MIC” value in the data set with S. faecalis is listed as “no bacterial growth was detected”. Moreover, the “Bacterial growth of S. faecalis at MIC/2” value in the data set with S. faecalis (setting [2]) is given as “exponential growth of bacteria was observed”. Further, in the data set on E. coli, the “Bacterial growth of E. coli at 2MIC” value is “no bacterial growth was detected” and the “Lag phase (delay in bacterial growth), E. coli” value was 10 h. For the same compound, in the data set on S. epidermidis, the “Bacterial growth of S. epidermidis at sub-MIC concentration” value is recorded as “a delay could be observed” and the “Bacterial growth of S. epidermidis at 2MIC” value is listed as “no bacterial growth was detected”. Besides, the “Bacterial growth of C. freundii at 2MIC” value in the data set with C. freundii is “no bacterial growth was detected”. The “Log phase, C. freundii” value in the data set with C. freundii (lowest concentration (50 µg/mL)) came out at 43 h. For the same compound, the “Delay in the bacterial growth, S. aureus” value in the data set on S. aureus (MIC concentration (25 µg/mL)) turned out to be 44 h. For the same compound, the “Bacterial growth of S. aureus at 2MIC” value in the data set on S. aureus is “no bacterial growth was detected”. The “Bacterial growth of S. aureus at MIC/2” value with S. aureus (setting [2]) is “exponential growth of bacteria was observed”.

With `O=C(CC[Se]CC=Cc1ccccc1)[c-]1cccc1.[Fe+2].c1cc[cH-]c1` [Compound 1c, 3-(Cinnamylselanyl)-1-ferrocenylpropan-1-one], the “DPPH radical scavenging activity” value in data set [1] is reported as 72.6%.

With `O=C(CC[Se]Cc1ccc2c(c1)OCO2)[c-]1cccc1.[Fe+2].c1cc[cH-]c1` [Compound 2c, 3-((Benzo[d][1,3]dioxol-5-ylmethyl)selanyl)-1-ferrocenylpropan-1-one], the “DPPH radical scavenging activity” value in data set [1] is given as 76.1%.
